Test results published in PMC11528023, “Transport mechanism and structural pharmacology of human urate transporter URAT1” (Cell Research, 2024).

Molecular target: T1, URAT1 F449A (Homo sapiens, UniProt Q96S37, F449A)
T1 construct: expressed in transfected cells; host or cells: HEK293 cells (ATCC, CRL-3216), transient transfection
T1 sequence (Q96S37 1-553 F449A): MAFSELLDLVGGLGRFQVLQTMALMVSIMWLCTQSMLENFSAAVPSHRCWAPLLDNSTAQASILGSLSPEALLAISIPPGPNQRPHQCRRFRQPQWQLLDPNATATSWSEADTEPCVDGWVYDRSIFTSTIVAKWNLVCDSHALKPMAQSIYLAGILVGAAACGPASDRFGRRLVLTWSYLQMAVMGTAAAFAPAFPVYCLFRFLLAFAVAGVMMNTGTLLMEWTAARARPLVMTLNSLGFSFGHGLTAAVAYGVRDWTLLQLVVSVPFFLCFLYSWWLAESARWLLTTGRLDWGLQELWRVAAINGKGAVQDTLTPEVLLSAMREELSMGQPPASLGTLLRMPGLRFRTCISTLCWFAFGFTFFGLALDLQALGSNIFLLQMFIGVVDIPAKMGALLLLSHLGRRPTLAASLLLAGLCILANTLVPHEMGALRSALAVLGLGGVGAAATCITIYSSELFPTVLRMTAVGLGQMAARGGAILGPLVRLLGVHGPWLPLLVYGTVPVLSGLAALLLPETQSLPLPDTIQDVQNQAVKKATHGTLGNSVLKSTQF
Type: cell-based
Conditions: dose-response of 14C-urate uptake, Fig. 6c
Description: Fig. 6 Dotinurad inhibition and the mechanism of URAT1 transport. a Structure of dotinurad-bound URAT1. Detailed interactions between dotinurad and URAT1 are shown on the right. b Dotinurad-binding pocket, depicted in a top view looking down from the extracellular side. c Dose-response curves of URAT1 variants with mutations in the dotinurad-binding site, using the same buffer as defined in Fig. 1 legend. Data are shown as mean ± SD; n = 3 biological replicates. d Comparison between the dotinurad-bound and apo structures. e Schematic diagram of URAT1 importing urate. […]
Human embryonic kidney (HEK) 293 cells (ATCC, CRL-3216) were seeded onto poly(D-lysine)-coated 96-well plates at a density of 0.3 × 10^5 cells per well and cultured at 37 °C until reaching approximately 70%–80% confluence. […] The cells were then lysed in 0.1 M NaOH, and the lysed samples were added to scintillation liquid to measure radioactivity using a PerkinElmer Microbeta2 counter.
For dose-response assays, the cells were incubated with urate and increasing concentrations of inhibitors. […] Nonspecific uptake was measured in each plate in non-transfected cells, and this value was subtracted from the total uptake to obtain the URAT1-specific uptake. To compare the uptake signals among URAT1 variants, the mVenus fluorescence intensity of each construct was measured using fluorescence-detection size-exclusion chromatography[49] […]

## O=C(c1cc(Cl)c(O)c(Cl)c1)N1CS(=O)(=O)c2ccccc21 [dotinurad]
  Effect of F449A mutation on drug sensitivity: completely eliminating URAT1’s sensitivity
